Reference: ChEMBL document CHEMBL5375943, “The Importance of Tracking "Missing" Metabolites: How and Why?” (J Med Chem, 2023)

Tests used:
Cytochrome P450 3A4 = Cytochrome P450 3A4 (Homo sapiens, UniProt P08684); assay: Inhibition of CYP3A4 in human liver microsome; assay type: ADME, microsomes
[1] = Elimination half life in human; assay type: ADME; settings: read-out: beta t1/2
[2] = AUC (0 to t) in Sprague-Dawley rat at 10 mg/kg, po; assay type: ADME, organism-based; set-up: dose 10 mg/kg, route po; settings: in vivo
[3] = Elimination half life in human liver microsomes; assay type: ADME, Microsome; settings: read-out: beta t1/2 (converted)
[4] = Oral bioavailability in ICR mouse plasma at 5 mg/kg by LC-MS/MS analysis; assay type: ADME, organism-based
[5] = Metabolic stability in human plasma assessed as half life
[6] = Stability in human plasma assessed as compound remaining incubated for 10 mins relative to control; assay type: ADME, cell-free; settings: read-out: Stability
[7] = Clearance in Wistar rat at 3 mg/kg, iv incubated for 24 hrs by LC-MS/MS analysis; assay type: ADME, organism-based; settings: in vivo

Cytochrome P450 3A4, sequence (P08684 whole entry): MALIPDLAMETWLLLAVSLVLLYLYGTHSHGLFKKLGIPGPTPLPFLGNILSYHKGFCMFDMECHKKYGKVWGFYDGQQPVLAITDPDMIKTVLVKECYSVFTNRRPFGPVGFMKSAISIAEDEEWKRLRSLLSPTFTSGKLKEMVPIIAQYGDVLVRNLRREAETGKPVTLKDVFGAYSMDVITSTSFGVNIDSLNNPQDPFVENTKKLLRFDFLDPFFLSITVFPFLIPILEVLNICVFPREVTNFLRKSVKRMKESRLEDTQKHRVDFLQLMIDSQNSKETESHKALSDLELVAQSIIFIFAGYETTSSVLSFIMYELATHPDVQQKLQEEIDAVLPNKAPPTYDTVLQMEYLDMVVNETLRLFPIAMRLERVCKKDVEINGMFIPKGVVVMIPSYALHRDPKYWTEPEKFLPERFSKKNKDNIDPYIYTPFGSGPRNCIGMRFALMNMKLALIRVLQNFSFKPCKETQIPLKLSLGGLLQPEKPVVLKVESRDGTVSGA

OC1CC(O)(CN2CCC(COc3noc4cccc(O[C@H]5CCOC5)c34)CC2)CCO1 (stereo partly specified)
IC50 (Cytochrome P450 3A4): 600 nM

COc1ccc(Cl)cc1[C@]1(F)C(=O)Nc2cc(C(F)(F)F)ccc21 [FLINDOKALNER]
half-life [1]: > 7 days

CCc1cc(/C(C)=N/OCc2ccc(C3CCCCC3)c(C(F)(F)F)c2)ccc1CN1CC(C(=O)O[C@H]2CC[C@@]3(C)C(=CC[C@H]4[C@@H]5CC[C@H]([C@H](C)CCCC(C)C)[C@@]5(C)CC[C@@H]43)C2)C1
AUC(0-t) [2]: 0.19 µM·h
half-life [3]: 6.46 days
bioavailability [4]: 14.7%

COc1ccc2[nH]c([S+]([O-])Cc3ncc(C)c(OC)c3C)nc2c1 (stereo unspecified) [OMEPRAZOLE]
half-life [5]: 60 min

NCCOP(=O)(O)OC[C@@H](O)CNC(=O)c1ccncc1Nc1ccc(I)cc1F
remaining at 10 min [6]: 30%

C[C@H](O)[C@H]1CC[C@H]2[C@@H]3CC[C@H]4CC(C(=O)O)=CC[C@]4(C)[C@H]3CC[C@]12C
clearance [7]: 0.4 mL/min/kg

C[C@H](c1nc2ncccc2c(=O)n1-c1ccc(O)cc1)N(Cc1cccnc1)C(=O)Cc1ccc(OC(F)(F)F)cc1
IC50 (Cytochrome P450 3A4): 550 nM

C[C@H](OS(=O)(=O)O)[C@H]1CC[C@H]2[C@@H]3CC[C@H]4CC(C(=O)O)=CC[C@]4(C)[C@H]3CC[C@]12C
half-life [3]: 7.12 days
bioavailability [4]: 20.4%
